Results from ChEMBL document CHEMBL1201862, “PubChem BioAssay data set” (2004).
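A five-concentration, 48-hour dose response in 96-well plates underlies each endpoint, interpolated linearly between surrounding concentrations. GI50 marks 50% less growth.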 Calls of active or inactive are those of the source. Cut-off read from the data, not from the text of the source: active = GI50 up to about 1.1 µM and inactive = higher.

How the values were obtained:
Assay in all cases: NCI tumour cell line growth inhibition, 48 h
[1] = test system: 786-0
[2] = test system: CAKI-1
[3] = test system: CCRF-CEM
[4] = test system: HCT-116
[5] = test system: HL-60
[6] = test system: HOP-62
[7] = test system: HOP-92
[8] = test system: K562
[9] = test system: KM12
[10] = test system: LOX IMVI
[11] = test system: Malme-3M
[12] = test system: NCI-H522
[13] = test system: OVCAR-8
[14] = test system: SK-MEL-28
[15] = test system: SK-MEL-2
[16] = test system: SK-MEL-5
[17] = test system: SK-OV-3
[18] = test system: SW-620
[19] = test system: UACC-62
[20] = test system: BT-549

Measured: GI50

c1cnc2c3[nH]cc4[nH]c5ccccc5c4c-3nc2c1
inactive: [1] 44.4 µM | [2] 64.1 µM | [3] 24.2 µM | [4] 44.7 µM | [5] 76 µM | [6] 40.4 µM | [7] 16.9 µM | [8] 36.5 µM | [9] 36.1 µM | [10] 52.5 µM | [11] 28.4 µM | [12] > 100 µM | [13] 45.1 µM | [14] 50.5 µM | [15] 30.7 µM | [16] > 100 µM | [17] > 100 µM | [18] 55.2 µM | [19] > 100 µM

C=CCN(C)CN(C)c1nc(N(C)C)nc(N(C)C)n1
inactive: [1] 43.9 µM | [2] > 100 µM | [3] 33 µM | [4] 60.7 µM | [5] 21.1 µM | [6] > 100 µM | [7] > 100 µM | [8] > 100 µM | [9] > 100 µM | [10] 54 µM | [11] > 100 µM | [12] 11.2 µM | [13] > 100 µM | [14] > 100 µM | [15] > 100 µM | [16] > 100 µM | [17] > 100 µM | [18] 36.3 µM | [19] > 100 µM

CN1NC(c2ccccc2)=C(C#N)C(=O)CC1c1ccccc1Cl (configuration not stated)
inactive: [1] > 100 µM | [2] > 100 µM | [3] > 100 µM | [4] > 100 µM | [5] > 100 µM | [6] 25.3 µM | [7] > 100 µM | [9] > 100 µM | [10] > 100 µM | [11] > 100 µM | [12] 65.2 µM | [14] > 100 µM | [15] > 100 µM | [16] 69.8 µM | [17] > 100 µM | [18] > 100 µM

Nc1nc(S)nc(C(=O)Nc2nccs2)c1-c1ccccc1
inactive: [1] > 100 µM | [2] > 100 µM | [3] > 100 µM | [4] > 100 µM | [5] > 100 µM | [6] > 100 µM | [7] > 100 µM | [8] > 100 µM | [9] > 100 µM | [10] > 100 µM | [11] > 100 µM | [12] > 100 µM | [13] > 100 µM | [14] > 100 µM | [15] > 100 µM | [16] > 100 µM | [17] > 100 µM | [18] > 100 µM | [19] > 100 µM

CN(C)c1ccc(/C=C2\C[C@H]3[C@@H]4CC=C5C[C@@H](O)CC[C@]5(C)[C@H]4CC[C@]3(C)[C@H]2O)cc1
inactive: [1] 18.1 µM | [20] 21 µM | [4] 6.59 µM | [5] 31 µM | [6] 29.4 µM | [8] 28 µM | [9] 36 µM | [10] 8.51 µM | [11] 19.9 µM | [13] 3.84 µM | [14] 20.4 µM | [15] 20.9 µM | [16] 17.6 µM | [17] 31.2 µM | [18] 24.8 µM | [19] 13.7 µM

CC(=O)c1ccc2c(c1)oc(=O)n2CCN1CCCCC1
inactive: [1] > 100 µM | [20] > 100 µM | [2] > 100 µM | [3] 26.3 µM | [4] > 100 µM | [5] > 100 µM | [6] > 100 µM | [8] > 100 µM | [9] > 100 µM | [10] > 100 µM | [11] 2.79 µM | [13] > 100 µM | [14] > 100 µM | [15] > 100 µM | [16] > 100 µM | [17] > 100 µM | [18] > 100 µM | [19] > 100 µM

COc1ccc(CN2CCC/C=C/CC(Cl)(Cl)C2=O)cc1
inactive: [1] 35.8 µM | [2] 38.4 µM | [3] 35.5 µM | [4] 31.3 µM | [5] 28.2 µM | [6] 50.9 µM | [7] 14.5 µM | [8] 35.6 µM | [9] 36.6 µM | [10] 39.3 µM | [11] 23.8 µM | [12] 19.8 µM | [13] 40 µM | [14] 46.7 µM | [15] 19.8 µM | [16] 18 µM | [17] 27.9 µM | [18] 49.4 µM | [19] 43 µM

COc1ccc2c(c1)OC[C@@H]1c3cc4c(cc3O[C@H]21)OCO4
inactive: [1] > 100 µM | [2] 58.5 µM | [3] > 100 µM | [4] > 100 µM | [5] > 100 µM | [6] > 100 µM | [7] 70 µM | [8] > 100 µM | [9] > 100 µM | [10] > 100 µM | [11] > 100 µM | [12] > 100 µM | [13] > 100 µM | [14] > 100 µM | [15] > 100 µM | [16] > 100 µM | [17] > 100 µM | [18] > 100 µM

O=C1OCOC2(CCCC2)C1c1ccccc1 (configuration not stated)
inactive: [1] > 100 µM | [2] > 100 µM | [3] > 100 µM | [4] > 100 µM | [5] > 100 µM | [6] > 100 µM | [7] > 100 µM | [8] > 100 µM | [9] > 100 µM | [10] > 100 µM | [11] > 100 µM | [12] > 100 µM | [13] > 100 µM | [14] > 100 µM | [15] > 100 µM | [16] > 100 µM | [17] > 100 µM | [18] > 100 µM | [19] > 100 µM

COc1cc2c(oc(=O)c3c4oc([Si](C)(C)C)cc4cc(OC)c23)c2cccc(OCc3ccccc3)c12
inactive: [1] 19.1 µM | [2] 21.4 µM | [3] 48.3 µM | [4] 43.2 µM | [5] 43.3 µM | [6] 18.8 µM | [7] 34.8 µM | [8] 57 µM | [9] > 64.3 µM | [10] 44 µM | [11] 32.1 µM | [12] 36.4 µM | [13] 38.5 µM | [14] 38.3 µM | [15] 33.7 µM | [16] 38 µM | [17] 38.3 µM | [18] 68.9 µM | [19] 17.4 µM

O=C1C2=C(SCCS2)C(=O)c2c(Sc3ccc(Cl)cc3)c(Sc3ccc(Cl)cc3)c(Sc3ccc(Cl)cc3)c(Sc3ccc(Cl)cc3)c21
inactive: [1] 78.5 µM | [20] > 100 µM | [2] > 100 µM | [3] 11.6 µM | [4] > 100 µM | [6] 42.7 µM | [9] > 100 µM | [11] 20.2 µM | [13] > 100 µM | [15] 41.9 µM | [16] > 100 µM | [17] 94.6 µM | [18] > 100 µM | [19] 23.7 µM

c1ccc(P(=C2c3ccccc3-c3ccccc32)(c2ccccc2)c2ccccc2)cc1
inactive: [1] 4.68 µM | [2] 6.41 µM | [3] 2.51 µM | [5] 1.8 µM | [6] 1.69 µM | [7] 2.75 µM | [8] 2.1 µM | [9] 2.24 µM | [10] 2.83 µM | [11] 3.08 µM | [12] 1.6 µM | [13] 3.04 µM | [14] 6.5 µM | [15] 5.35 µM | [16] 2.17 µM | [17] 20.7 µM | [18] 3.37 µM | [19] 3.46 µM

CCOC(=O)C(C)Sc1nnc(COc2ccc(Cl)cc2)n1-c1ccccc1 (configuration not stated)
inactive: [1] 29.6 µM | [2] 16.2 µM | [3] 14.5 µM | [4] 21.4 µM | [5] 18.5 µM | [6] 21.4 µM | [7] 20.8 µM | [8] 13.6 µM | [9] 21 µM | [10] 14.3 µM | [11] 25.8 µM | [12] 1.82 µM | [13] 23.4 µM | [14] 21.3 µM | [15] 13.4 µM | [16] 21.4 µM | [17] 36.1 µM | [18] 14.2 µM | [19] 17.3 µM

CC(=O)/N=C1\N/C(=C/c2cc([N+](=O)[O-])ccc2O)CN1C
inactive: [1] > 100 µM | [20] > 100 µM | [2] > 100 µM | [4] > 100 µM | [5] 69.2 µM | [6] > 100 µM | [7] > 100 µM | [9] > 100 µM | [10] > 100 µM | [13] > 100 µM | [14] > 100 µM | [15] > 100 µM | [16] > 100 µM | [17] > 100 µM | [18] > 100 µM | [19] > 100 µM

O=S1(=O)OCCOS(=O)(=O)C1Cc1cccc2ccccc12
inactive: [1] 21.4 µM | [2] 32.6 µM | [3] 14.2 µM | [4] 20.3 µM | [5] 11.6 µM | [6] 23.9 µM | [7] 17.9 µM | [8] 15.6 µM | [10] 20.5 µM | [11] 16.1 µM | [12] 18.9 µM | [13] 17.7 µM | [14] 2.69 µM | [15] 51.3 µM | [16] 14.4 µM | [17] 27.5 µM | [18] 30.6 µM | [19] 22.2 µM
